Experimental data: ChEMBL document CHEMBL1212712, “A pulse at the heart of targeted therapy” (Nat Chem Biol, 2009)

What was measured:
[1] = Cmax in chronic myeloid leukemia patient; type: ADME, organism-based; settings: human, in vivo
[2] = Antiproliferative activity against human CML cells; type: functional, cell-based; settings: Leukemia cell
[3] = Half life in chronic myeloid leukemia patient; type: ADME, organism-based; settings: human, in vivo

| Cmax [1] [nM] | half-life [3] [h] | Structure (SMILES) | IC50 [2] [nM] |
| --- | --- | --- | --- |
| 200 | 3 | Cc1nc(Nc2ncc(C(=O)Nc3c(C)cccc3Cl)s2)cc(N2CCN(CCO)CC2)n1.O [DASATINIB] | 1 |
| 2000 |  | Cc1ccc(NC(=O)c2ccc(CN3CCN(C)CC3)cc2)cc1Nc1nccc(-c2cccnc2)n1 [IMATINIB] | 350 |
